This passage reports IC50 results from US12673944B2, “Compounds having inhibitory activity against glucosylceramide synthase or pharmaceutically acceptable salt thereof, processes for preparing the same, and pharmaceutical compositions comprising the same” (YUHAN CORPORATION, priority 2019, dated 2026).

For orientation: IC50 means the point on the concentration scale where inhibition reaches its midpoint. Lower therefore signals higher potency.

Test [1] has as its system GM1 production in Jurkat cells. As to the kind of experiment: cells. In kind it is cell-based. To be noted: Homo sapiens, Jurkat, 72 h.
Test [2] concerns the target T1, glucosylceramide synthase (GCS) (Homo sapiens, UniProt Q16739).
T1 construct: The obtained supernatant was used; host or cells: A549 cells (lysate supernatant after sonication)
T1 sequence (Q16739 1-394): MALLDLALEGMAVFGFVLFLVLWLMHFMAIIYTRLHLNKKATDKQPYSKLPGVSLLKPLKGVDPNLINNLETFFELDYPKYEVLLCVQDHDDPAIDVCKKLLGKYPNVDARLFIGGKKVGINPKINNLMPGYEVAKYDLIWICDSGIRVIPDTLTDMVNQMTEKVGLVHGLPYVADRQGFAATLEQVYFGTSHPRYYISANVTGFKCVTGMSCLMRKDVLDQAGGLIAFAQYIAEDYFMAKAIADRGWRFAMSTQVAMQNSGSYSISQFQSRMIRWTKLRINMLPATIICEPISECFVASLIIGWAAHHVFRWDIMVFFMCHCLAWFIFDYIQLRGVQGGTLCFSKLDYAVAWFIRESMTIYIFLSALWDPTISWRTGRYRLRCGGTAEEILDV
As to the kind of experiment: GCS enzyme inhibition assay (A549 cell lysate, NBD C6-ceramide, HPLC fluorescence). In kind it is biochemical. To be noted: inhibitory activity against GCS, 37° C., 90 minutes. As for the experimental part:
Ibiglustat, known as a GCS inhibitor, was used as a control.
After the cells attached to the culture dish were washed with phosphate buffered saline (PBS), the cells were scraped off with a cell scraper and then centrifuged (4000 rpm, 3 min, 4° C.) to collect the cells in a 50 ml tube. The cell pellets were suspended in a lysis buffer (50 mM HEPES, pH 7.3, containing 1× the protease/phosphatase inhibitor cocktail), lysed by sonication, and then the lysate was centrifuged (13000 rpm, 10 min, 4° C.). The obtained supernatant was used for the quantitative analysis of proteins. The amount of proteins was measured using the BCA protein assay kit, using bovine serum albumin as a standard.
Enzymatic reactions were initiated by sequentially adding the following reaction materials to a 96 deep-well plate. Thereafter, the enzymatic reactions were performed at 37° C. for 90 minutes.
The enzymatic reactions were stopped by adding 100 μl of chloroform/methanol (2:1, v/v). After vortexing for 15 seconds, each mixture was centrifuged (4000 rpm, 10 min, 18° C.). The lower layer (50 μl) was transferred to a new 96 deep-well plate and dried with a reduced concentrator.
Data analysis was performed by the following equations. % Area(Sample)=Area(GlcCer)/[Area(Cer)+Area(GlcCer)]×100 % GCS activity=[Area(Sample)−Area(ibiglustat)]/[Area(DMSO)−Area(ibiglustat)]×100

`O=C(NC1CCOc2cc(-c3cccc(-c4ccccc4)c3)ccc21)O[C@@H]1CN2CCC1CC2` (stereo partly drawn) [Example 59, (S)-quinuclidin-3-yl (7-([1,1′-biphenyl]-3-yl)chroman-4-yl)carbamate]: the IC50 was found to be 2.22 nM in test [1] and 0.3 nM in test [2].
For `O=C(NC1CCOc2cc(-c3cccc(S(=O)(=O)N4CCCC4)c3)ccc21)O[C@@H]1CN2CCC1CC2` (stereo partly drawn) [Example 60, (S)-quinuclidin-3-yl (7-(3-(pyrrolidin-1-ylsulfonyl)phenyl)chroman-4-yl)carbamate] the same measures were 16.5 nM and 2.39 nM.
Take `O=C(NC1CCOc2cc(-c3ccc4c(c3)COC4)ccc21)O[C@@H]1CN2CCC1CC2` (stereo partly drawn) [Example 61, (S)-quinuclidin-3-yl (7-(1,3-dihydroisobenzofuran-5-yl)chroman-4-yl)carbamate]: the IC50 worked out at 40.1 nM in test [1] and 1.36 nM in test [2].
Taken in the same sequence, the figures for `O=C(NC1CCOc2cc(-c3ccc4nsnc4c3)ccc21)O[C@@H]1CN2CCC1CC2` (stereo partly drawn) [Example 62, (S)-quinuclidin-3-yl (7-(benzo[c][1,2,5]thiadiazol-5-yl)chroman-4-yl)carbamate] were 21.2 nM and 1.03 nM.
With `CN1CCOc2cc(-c3ccc4c(c3)OCCC4NC(=O)O[C@@H]3CN4CCC3CC4)ccc21` (stereo partly drawn) [Example 63, (S)-quinuclidin-3-yl (7-(4-methyl-3,4-dihydro-2H-benzo[b][1,4]oxazin-7-yl)chroman-4-yl)carbamate], the IC50 in test [1] worked out at 27 nM; in test [2] it was 1.33 nM.
Taken in the same sequence, the figures for `O=C(NC1CCOc2cc(-c3ccsc3)ccc21)O[C@@H]1CN2CCC1CC2` (stereo partly drawn) [Example 64, (S)-quinuclidin-3-yl (7-(thiophen-3-yl)chroman-4-yl)carbamate] were 19.2 nM and 1.32 nM.
For `COc1ccc(Cl)c(-c2ccc3c(c2)OCCC3NC(=O)O[C@@H]2CN3CCC2CC3)c1` (stereo partly drawn) [Example 65, (S)-quinuclidin-3-yl (7-(2-chloro-5-methoxyphenyl)chroman-4-yl)carbamate] the same measures were 1.18 nM and 0.22 nM.
For the molecule `COc1cc(-c2ccc3c(c2)OCCC3NC(=O)O[C@@H]2CN3CCC2CC3)ccc1Cl` (stereo partly drawn) [Example 66, (S)-quinuclidin-3-yl (7-(4-chloro-3-methoxyphenyl)chroman-4-yl)carbamate], the figures for the IC50 in test [1] and in test [2] were 11.3 nM and 1.75 nM, respectively.
`COc1cccc(-c2ccc3c(c2)OCCC3NC(=O)O[C@@H]2CN3CCC2CC3)c1Cl` (stereo partly drawn) [Example 67, (S)-quinuclidin-3-yl (7-(2-chloro-3-methoxyphenyl)chroman-4-yl)carbamate]: the values for the IC50 in test [1] and in test [2] were 11.3 nM and 0.93 nM, respectively.
For the molecule `COc1cc(-c2ccc3c(c2)OCCC3NC(=O)O[C@@H]2CN3CCC2CC3)ccn1` (stereo partly drawn) [Example 68, (S)-quinuclidin-3-yl (7-(2-methoxypyridin-4-yl)chroman-4-yl)carbamate], the 50% inhibitory concentration (IC50) is 28.3 nM in test [1] and 3.65 nM in test [2].
For `CN(C)c1cc(-c2ccc3c(c2)OCCC3NC(=O)O[C@@H]2CN3CCC2CC3)ccc1F` (stereo partly drawn) [Example 69, (S)-quinuclidin-3-yl (7-(3-(dimethylamino)-4-fluorophenyl)chroman-4-yl)carbamate] the same measures were 8.93 nM and 1.91 nM.
Taken in the same sequence, the figures for `O=C(NC1CCOc2cc(-c3ccc4c(c3)CCCO4)ccc21)O[C@@H]1CN2CCC1CC2` (stereo partly drawn) [Example 70, (S)-quinuclidin-3-yl [6,7′-bichroman]-4′-ylcarbamate] were 5.78 nM and 0.59 nM.
For `COc1ncc(-c2ccc3c(c2)OCCC3NC(=O)O[C@@H]2CN3CCC2CC3)cc1C(F)(F)F` (stereo partly drawn) [Example 71, (S)-quinuclidin-3-yl (7-(6-methoxy-5-(trifluoromethyl)pyridin-3-yl)chroman-4-yl)carbamate], the IC50 is 38.8 nM in test [1] and 5.3 nM in test [2].
Consider `O=C(NC1CCOc2cc(-c3cnn(Cc4ccccc4)c3)ccc21)O[C@@H]1CN2CCC1CC2` (stereo partly drawn) [Example 72, (S)-quinuclidin-3-yl (7-(1-benzyl-1H-pyrazol-4-yl)chroman-4-yl)carbamate], for which the values for the IC50 in test [1] and in test [2] were 12.8 nM and 0.92 nM, respectively.
For `O=C(NC1CCOc2cc(-c3ccc(C4CCOCC4)cc3)ccc21)O[C@@H]1CN2CCC1CC2` (stereo partly drawn) [Example 73, (S)-quinuclidin-3-yl (7-(4-(tetrahydro-2H-pyran-4-yl)phenyl)chroman-4-yl)carbamate], the IC50 in test [1] amounted to 28.2 nM; in test [2], 1.47 nM.
`CN1C(=O)COc2ccc(-c3ccc4c(c3)OCCC4NC(=O)O[C@@H]3CN4CCC3CC4)cc21` (stereo partly drawn) [Example 74, (S)-quinuclidin-3-yl (7-(4-methyl-3-oxo-3,4-dihydro-2H-benzo[b][1,4]oxazin-6-yl)chroman-4-yl)carbamate]: the IC50 in test [1] amounted to 44.3 nM; in test [2], 5.03 nM.
Consider `Cc1cc(-c2ccc3c(c2)OCCC3NC(=O)O[C@@H]2CN3CCC2CC3)ccc1N1CCOCC1` (stereo partly drawn) [Example 75, (S)-quinuclidin-3-yl (7-(3-methyl-4-morpholinophenyl)chroman-4-yl)carbamate], for which the values for the IC50 in test [1] and in test [2] were 23.6 nM and 2.44 nM, respectively.
In the case of `O=C(NC1CCOc2cc(-c3ccc(N4CCOCC4)c(Cl)c3)ccc21)O[C@@H]1CN2CCC1CC2` (stereo partly drawn) [Example 76, (S)-quinuclidin-3-yl (7-(3-chloro-4-morpholinophenyl)chroman-4-yl)carbamate], the IC50 stood at 29.2 nM in test [1] and 1.94 nM in test [2].
For `O=C(NC1CCOc2cc(-c3ccc(N4CCOCC4)c(F)c3)ccc21)O[C@@H]1CN2CCC1CC2` (stereo partly drawn) [Example 77, (S)-quinuclidin-3-yl (7-(3-fluoro-4-morpholinophenyl)chroman-4-yl)carbamate] the same measures were 28.7 nM and 3.33 nM.
With `Cc1ccc(-c2ccc3c(c2)OCCC3NC(=O)O[C@@H]2CN3CCC2CC3)cc1C#N` (stereo partly drawn) [Example 78, (S)-quinuclidin-3-yl (7-(3-cyano-4-methylphenyl)chroman-4-yl)carbamate], the IC50 in test [1] stood at 27.3 nM; in test [2], 1.26 nM.
For `COc1cncc(-c2ccc3c(c2)OCCC3NC(=O)O[C@@H]2CN3CCC2CC3)c1` (stereo partly drawn) [Example 79, (S)-quinuclidin-3-yl (7-(5-methoxypyridin-3-yl)chroman-4-yl)carbamate] the same measures were 33.4 nM and 2.57 nM.
Regarding `COc1ncc(-c2ccc3c(c2)OCCC3NC(=O)O[C@@H]2CN3CCC2CC3)cc1Cl` (stereo partly drawn) [Example 80, (S)-quinuclidin-3-yl (7-(5-chloro-6-methoxypyridin-3-yl)chroman-4-yl)carbamate], the IC50 was 44.2 nM in test [1] and 5.75 nM in test [2].
On to `O=C(NC1CCOc2cc(-c3ccc(OCC4CC4)nc3)ccc21)O[C@@H]1CN2CCC1CC2` (stereo partly drawn) [Example 81, (S)-quinuclidin-3-yl (7-(6-(cyclopropylmethoxy)pyridin-3-yl)chroman-4-yl)carbamate], for which the IC50 in test [1] came out at 14.8 nM; in test [2], 0.94 nM.
Taken in the same sequence, the figures for `CC(C)Oc1ccc(-c2ccc3c(c2)OCCC3NC(=O)O[C@@H]2CN3CCC2CC3)cc1Cl` (stereo partly drawn) [Example 82, (S)-quinuclidin-3-yl (7-(3-chloro-4-isopropoxyphenyl)chroman-4-yl)carbamate] were 7 nM and 2.86 nM.
On to `COc1ccc(-c2ccc3c(c2)OCCC3NC(=O)O[C@@H]2CN3CCC2CC3)cc1C(F)(F)F` (stereo partly drawn) [Example 83, (S)-quinuclidin-3-yl (7-(4-methoxy-3-(trifluoromethyl)phenyl)chroman-4-yl)carbamate], for which the IC50 in test [1] was 19.6 nM; in test [2], 3.93 nM.
For `COc1cccc(OC)c1-c1ccc2c(c1)OCCC2NC(=O)O[C@@H]1CN2CCC1CC2` (stereo partly drawn) [Example 84, (S)-quinuclidin-3-yl (7-(2,6-dimethoxyphenyl)chroman-4-yl)carbamate] the same measures were 7.18 nM and 2.79 nM.
As for `O=C(NC1CCOc2ccc(-c3ccc(F)cc3)cc21)O[C@@H]1CN2CCC1CC2` (stereo partly drawn) [Example 85, (S)-quinuclidin-3-yl (6-(4-fluorophenyl)chroman-4-yl)carbamate], the IC50 in test [1] came out at 222 nM; in test [2] it was 9.67 nM.
For the molecule `O=C(NC1CCOc2ccc(-c3cccc(F)c3)cc21)O[C@@H]1CN2CCC1CC2` (stereo partly drawn) [Example 86, (S)-quinuclidin-3-yl (6-(3-fluorophenyl)chroman-4-yl)carbamate], the IC50 turned out to be 181 nM in test [1] and 9.68 nM in test [2].
In the case of `O=C(NC1CCOc2ccc(-c3ccccc3F)cc21)O[C@@H]1CN2CCC1CC2` (stereo partly drawn) [Example 87, (S)-quinuclidin-3-yl (6-(2-fluorophenyl)chroman-4-yl)carbamate], the IC50 in test [1] is 98.7 nM; in test [2], 3.57 nM.
